Here are results for one compound from paper PMC5218480 (PLoS ONE, 2017).

The test system of the assay is MV-4-11 cells. Kind of assay: Gene expression microarray analysis (Affymetrix PrimeView) and GSEA. Also on record: RFU PODN (11730768_x_at) / Fold change /veh PODN (11730768_x_at) / RFU LINC00158 (11744669_a_at) / Fold change /veh LINC00158 (11744669_a_at) / RFU DUSP10 (11751237_a_at) / Fold change /veh DUSP10 (11751237_a_at) / RFU ID3 (11757404_x_at) / Fold change /veh ID3 (11757404_x_at) / RFU PLEKHG5 (11737974_s_at) / Fold change /veh PLEKHG5 (11737974_s_at) / RFU LRRC4B (11730491_at) / Fold change /veh LRRC4B (11730491_at) / RFU GIMAP4 (11747438_a_at) / Fold change /veh GIMAP4 (11747438_a_at) / RFU KRT8 (11758183_x_at) / Fold change /veh KRT8 (11758183_x_at) / RFU CNN1 (11734310_a_at) / Fold change /veh CNN1 (11734310_a_at) / RFU VPS37D (11726825_at) / Fold change /veh VPS37D (11726825_at) / RFU C10orf10 (11716522_x_at) / Fold change /veh C10orf10 (11716522_x_at) / RFU KIR2DL2 /// KIR2DL4 /// KIR2DL5A /// KIR2DL5B /// KIR2DS1 /// KIR2DS2 /// KIR2DS3 /// KIR2DS4 /// KIR3DL3 /// KIR3DL3 /// KIR3DS1 (11738374_at) / Fold change /veh KIR2DL2 /// KIR2DL4 /// KIR2DL5A /// KIR2DL5B /// KIR2DS1 /// KIR2DS2 /// KIR2DS3 /// KIR2DS4 /// KIR3DL3 /// KIR3DL3 /// KIR3DS1 (11738374_at) / RFU C1QL1 (11718748_at) / Fold change /veh C1QL1 (11718748_at) / RFU TMPRSS4 (11747572_a_at) / Fold change /veh TMPRSS4 (11747572_a_at) / RFU HAMP (11756126_x_at) / Fold change /veh HAMP (11756126_x_at) / RFU RNFT2 (11725882_a_at) / Fold change /veh RNFT2 (11725882_a_at) / RFU NR4A2 (11747474_a_at) / Fold change /veh NR4A2 (11747474_a_at) / RFU ABCC12 (11746883_a_at) / Fold change /veh ABCC12 (11746883_a_at) / RFU TMEM136 (11760407_x_at) / Fold change /veh TMEM136 (11760407_x_at) / RFU CLDN22 /// WWC2 (11732394_at) / Fold change /veh CLDN22 /// WWC2 (11732394_at) / RFU HLA-DPB1 (11760878_x_at) / Fold change /veh HLA-DPB1 (11760878_x_at) / RFU SPINT1 (11716480_a_at) / Fold change /veh SPINT1 (11716480_a_at) / RFU GAP43 (11754022_s_at) / Fold change /veh GAP43 (11754022_s_at) / RFU A4GNT (11735810_at) / Fold change /veh A4GNT (11735810_at) / RFU PRB3 (11715151_x_at) / Fold change /veh PRB3 (11715151_x_at) / RFU TUBB4B (11761932_at) / Fold change /veh TUBB4B (11761932_at) / RFU CAPN14 (11732068_a_at) / Fold change /veh CAPN14 (11732068_a_at) / RFU TMCC2 (11721928_a_at) / Fold change /veh TMCC2 (11721928_a_at) / RFU IRGQ (11745062_a_at) / Fold change /veh IRGQ (11745062_a_at) / RFU FAM174B (11720279_a_at) / Fold change /veh FAM174B (11720279_a_at) / RFU TMPRSS4 (11748680_a_at) / Fold change /veh TMPRSS4 (11748680_a_at) / RFU FAM212B (11763350_a_at) / Fold change /veh FAM212B (11763350_a_at) / RFU PLEKHG5 (11743358_a_at) / Fold change /veh PLEKHG5 (11743358_a_at) / RFU ZSCAN30 (11745921_a_at) / Fold change /veh ZSCAN30 (11745921_a_at) / RFU CMKLR1 (11741424_a_at) / Fold change /veh CMKLR1 (11741424_a_at) / RFU LOC101060620 /// MAPK8IP1 (11723275_at) / Fold change /veh LOC101060620 /// MAPK8IP1 (11723275_at) / RFU SPTSSB (11747773_x_at) / Fold change /veh SPTSSB (11747773_x_at) / RFU PRSS12 (11739890_at) / Fold change /veh PRSS12 (11739890_at) / RFU BIN1 (11741810_x_at) / Fold change /veh BIN1 (11741810_x_at) / RFU WNT11 (11732464_a_at) / Fold change /veh WNT11 (11732464_a_at) / RFU C10orf10 (11716521_a_at) / Fold change /veh C10orf10 (11716521_a_at) / RFU C5orf56 (11738089_at) / Fold change /veh C5orf56 (11738089_at) / RFU CYB561 (11721691_x_at) / Fold change /veh CYB561 (11721691_x_at) / RFU ANKRD19P (11752326_a_at) / Fold change /veh ANKRD19P (11752326_a_at) / RFU OR2T12 /// OR2T33 /// OR2T8 (11738714_s_at) / Fold change /veh OR2T12 /// OR2T33 /// OR2T8 (11738714_s_at) / RFU VCAN (11748164_a_at) / Fold change /veh VCAN (11748164_a_at) / RFU JSRP1 (11732532_at) / Fold change /veh JSRP1 (11732532_at) / RFU KRTAP10-11 (11738290_x_at) / Fold change /veh KRTAP10-11 (11738290_x_at) / RFU MYO3A (11730013_a_at) / Fold change /veh MYO3A (11730013_a_at) / RFU EBF3 (11725865_a_at) / Fold change /veh EBF3 (11725865_a_at) / RFU CAMK2N1 (11719241_x_at) / Fold change /veh CAMK2N1 (11719241_x_at) / RFU C5orf56 (11738088_a_at) / Fold change /veh C5orf56 (11738088_a_at) / RFU OLFML3 (11715873_a_at) / Fold change /veh OLFML3 (11715873_a_at) / RFU LOC100653217 /// NTM (11731650_a_at) / Fold change /veh LOC100653217 /// NTM (11731650_a_at) / RFU MAPK11 (11762145_a_at) / Fold change /veh MAPK11 (11762145_a_at) / RFU FIZ1 (11724087_x_at) / Fold change /veh FIZ1 (11724087_x_at) / RFU OASL (11726364_x_at) / Fold change /veh OASL (11726364_x_at) / RFU SOX15 (11748057_x_at) / Fold change /veh SOX15 (11748057_x_at) / RFU CD79A (11719716_a_at) / Fold change /veh CD79A (11719716_a_at) / RFU HIST1H1D (11736915_at) / Fold change /veh HIST1H1D (11736915_at) / RFU CASKIN2 (11723855_a_at) / Fold change /veh CASKIN2 (11723855_a_at) / RFU LOC730098 (11760151_x_at) / Fold change /veh LOC730098 (11760151_x_at) / RFU OR4N2 (11742367_at) / Fold change /veh OR4N2 (11742367_at) / RFU PRRT2 (11749266_a_at) / Fold change /veh PRRT2 (11749266_a_at) / RFU SNX32 (11753110_a_at) / Fold change /veh SNX32 (11753110_a_at) / RFU CDHR5 (11726645_a_at) / Fold change /veh CDHR5 (11726645_a_at) / RFU RCAN1 (11760418_a_at) / Fold change /veh RCAN1 (11760418_a_at) / RFU FAM167A (11723789_a_at) / Fold change /veh FAM167A (11723789_a_at) / RFU FAM26E (11764081_at) / Fold change /veh FAM26E (11764081_at) / RFU ISYNA1 (11749810_s_at) / Fold change /veh ISYNA1 (11749810_s_at) / RFU ACY1 (11761880_at) / Fold change /veh ACY1 (11761880_at) / RFU 11764098_at / Fold change /veh 11764098_at / RFU SAMD14 (11745864_x_at) / Fold change /veh SAMD14 (11745864_x_at) / RFU NPB (11741838_a_at) / Fold change /veh NPB (11741838_a_at) / RFU TMPRSS6 (11731388_a_at) / Fold change /veh TMPRSS6 (11731388_a_at) / RFU KRTAP10-2 (11738614_at) / Fold change /veh KRTAP10-2 (11738614_at) / RFU ARHGAP8 /// PRR5-ARHGAP8 (11727945_x_at) / Fold change /veh ARHGAP8 /// PRR5-ARHGAP8 (11727945_x_at) / RFU KRTAP5-7 /// NADSYN1 (11734609_at) / Fold change /veh KRTAP5-7 /// NADSYN1 (11734609_at) / RFU RASL12 (11751679_a_at) / Fold change /veh RASL12 (11751679_a_at) / RFU CDKN2B (11736163_a_at) / Fold change /veh CDKN2B (11736163_a_at) / RFU PRF1 (11729649_at) / Fold change /veh PRF1 (11729649_at) / RFU, ZNF638 /// ZNF638-IT1 / Fold change vs veh, ZNF638 /// ZNF638-IT1 / RFU, PANK3 / Fold change vs veh, PANK3 / RFU, SH3YL1 / Fold change vs veh, SH3YL1 / RFU, ZEB2 / Fold change vs veh, ZEB2 / RFU, NRIP1 / Fold change vs veh, NRIP1 / RFU, PTTG1IP / Fold change vs veh, PTTG1IP / RFU, CAPN2 / Fold change vs veh, CAPN2 / RFU, MED14 / Fold change vs veh, MED14 / RFU, SNORA58 / Fold change vs veh, SNORA58 / RFU, C1orf63 / Fold change vs veh, C1orf63 / RFU, LRRFIP1 / Fold change vs veh, LRRFIP1 / RFU, NDUFAF7 / Fold change vs veh, NDUFAF7 / RFU, SLC12A2 / Fold change vs veh, SLC12A2 / RFU, IBTK / Fold change vs veh, IBTK / RFU, ESF1 / Fold change vs veh, ESF1 / Fold change vs veh, TMEM50B / RFU, TAOK1 / Fold change vs veh, TAOK1 / RFU, ACBD3 / Fold change vs veh, ACBD3 / RFU, TMA16 / Fold change vs veh, TMA16 / RFU, RWDD3 / Fold change vs veh, RWDD3 / RFU, BCAT1 / Fold change vs veh, BCAT1 / RFU, EDEM3 / Fold change vs veh, EDEM3 / RFU, TMEM33 / Fold change vs veh, TMEM33 / RFU, WDR75 / Fold change vs veh, WDR75 / RFU, AHCTF1 / Fold change vs veh, AHCTF1 / RFU, TFRC / Fold change vs veh, TFRC / RFU, ZDHHC17 / Fold change vs veh, ZDHHC17 / RFU, NOM1 / Fold change vs veh, NOM1 / RFU, ARL8B / Fold change vs veh, ARL8B / RFU, ZBTB11 / Fold change vs veh, ZBTB11 / RFU, TAMM41 / Fold change vs veh, TAMM41 / RFU, KIAA1704 /// LOC100996395 / Fold change vs veh, KIAA1704 /// LOC100996395 / RFU, ING1 / Fold change vs veh, ING1 / RFU, TRMT61B / Fold change vs veh, TRMT61B / RFU, FUBP3 / Fold change vs veh, FUBP3 / RFU, TP53 / Fold change vs veh, TP53 / RFU, TNKS2 / Fold change vs veh, TNKS2 / RFU, ZFP14 / Fold change vs veh, ZFP14 / RFU, ACTR2 / Fold change vs veh, ACTR2 / RFU, PPP3R1 / Fold change vs veh, PPP3R1 / RFU, PIK3R1 / Fold change vs veh, PIK3R1 / RFU, HNRNPA1 / Fold change vs veh, HNRNPA1 / RFU, RNF170 / Fold change vs veh, RNF170 / RFU, ZNF28 / Fold change vs veh, ZNF28 / RFU, RNGTT / Fold change vs veh, RNGTT / RFU, OGT / Fold change vs veh, OGT / RFU, BRD1 / Fold change vs veh, BRD1 / RFU, MARS / Fold change vs veh, MARS / RFU, ZNF655 / Fold change vs veh, ZNF655 / RFU, FAHD1 / Fold change vs veh, FAHD1 / RFU, BDP1 / Fold change vs veh, BDP1 / RFU, LRRCC1 / Fold change vs veh, LRRCC1 / RFU, ARID1A / Fold change vs veh, ARID1A / RFU, ZNF146 / Fold change vs veh, ZNF146 / RFU, ZNF330 / Fold change vs veh, ZNF330 / RFU, GPN3 / Fold change vs veh, GPN3 / RFU, C9orf123 / Fold change vs veh, C9orf123 / RFU, N4BP2L2 / Fold change vs veh, N4BP2L2 / RFU, ARFIP1 / Fold change vs veh, ARFIP1 / RFU, FAM179B / Fold change vs veh, FAM179B / RFU, BCL10 / Fold change vs veh, BCL10 / RFU, UHRF1BP1L / Fold change vs veh, UHRF1BP1L / RFU, BET1 / Fold change vs veh, BET1 / RFU, CNOT2 / Fold change vs veh, CNOT2 / RFU, ZNF268 / Fold change vs veh, ZNF268 / Fold change vs veh, ZNF507 / RFU, DGCR2 / Fold change vs veh, DGCR2 / RFU, WDSUB1 / Fold change vs veh, WDSUB1 / Fold change vs veh, HSP90B1 /// MIR3652 / RFU, ADSS / Fold change vs veh, ADSS / RFU, GK / Fold change vs veh, GK / RFU, ZNF148 / Fold change vs veh, ZNF148 / RFU, TAF9 / Fold change vs veh, TAF9 / RFU, SLC1A5 / Fold change vs veh, SLC1A5 / RFU, SLMO2 / Fold change vs veh, SLMO2 / RFU, ABCC4 / Fold change vs veh, ABCC4 / RFU, LOC101060439 /// RAP1B / Fold change vs veh, LOC101060439 /// RAP1B / RFU, RFX7 / Fold change vs veh, RFX7 / RFU, GTPBP10 / Fold change vs veh, GTPBP10 / RFU, CNEP1R1 / Fold change vs veh, CNEP1R1 / RFU, BIVM-ERCC5 /// ERCC5 / Fold change vs veh, BIVM-ERCC5 /// ERCC5 / RFU, ILF3 / Fold change vs veh, ILF3 / RFU 11762660_at / Fold change /veh 11762660_at / RFU VCAN (11757783_s_at) / Fold change /veh VCAN (11757783_s_at) / RFU DDX43 (11728927_at) / Fold change /veh DDX43 (11728927_at) / RFU KRT8 (11758188_x_at) / Fold change /veh KRT8 (11758188_x_at) / RFU NKD1 (11759106_at) / Fold change /veh NKD1 (11759106_at) / RFU SRD5A1 (11742802_a_at) / Fold change /veh SRD5A1 (11742802_a_at) / RFU TPSAB1 /// TPSB2 (11721975_s_at) / Fold change /veh TPSAB1 /// TPSB2 (11721975_s_at) / RFU GSTM3 (11746129_a_at) / Fold change /veh GSTM3 (11746129_a_at) / RFU IL23R (11737362_x_at) / Fold change /veh IL23R (11737362_x_at) / RFU TMEM51 (11727254_a_at) / Fold change /veh TMEM51 (11727254_a_at) / RFU PIWIL2 (11732686_x_at) / Fold change /veh PIWIL2 (11732686_x_at) / RFU ORM1 (11744905_x_at) / Fold change /veh ORM1 (11744905_x_at) / RFU CCDC152 (11743942_at) / Fold change /veh CCDC152 (11743942_at) / RFU ECM1 (11717891_a_at) / Fold change /veh ECM1 (11717891_a_at) / RFU IL23R (11748794_a_at) / Fold change /veh IL23R (11748794_a_at) / RFU TNFAIP8L3 (11732012_x_at) / Fold change /veh TNFAIP8L3 (11732012_x_at) / RFU MBOAT4 (11741988_at) / Fold change /veh MBOAT4 (11741988_at) / RFU 11764193_at / Fold change /veh 11764193_at / RFU TMEM53 (11763286_at) / Fold change /veh TMEM53 (11763286_at) / RFU MAGEB2 (11727129_at) / Fold change /veh MAGEB2 (11727129_at) / RFU TMEM200A (11744735_a_at) / Fold change /veh TMEM200A (11744735_a_at) / RFU CCDC152 (11751479_a_at) / Fold change /veh CCDC152 (11751479_a_at) / RFU FAM211A (11726209_a_at) / Fold change /veh FAM211A (11726209_a_at) / RFU RGS16 (11746705_a_at) / Fold change /veh RGS16 (11746705_a_at) / RFU VCAN (11755009_s_at) / Fold change /veh VCAN (11755009_s_at) / RFU RHOB (11743442_s_at) / Fold change /veh RHOB (11743442_s_at) / RFU RGS16 (11720943_a_at) / Fold change /veh RGS16 (11720943_a_at) / RFU RGS16 (11720944_at) / Fold change /veh RGS16 (11720944_at) / RFU, VPS4B / Fold change vs veh, VPS4B / RFU, CREB1 / Fold change vs veh, CREB1 / RFU, DNAJC13 / Fold change vs veh, DNAJC13 / RFU, GNAQ / Fold change vs veh, GNAQ / RFU, CDK5R1 / Fold change vs veh, CDK5R1 / RFU, ZRANB3 / Fold change vs veh, ZRANB3 / RFU, CUL4A / Fold change vs veh, CUL4A / RFU, CCNY / Fold change vs veh, CCNY / RFU, UFL1 / Fold change vs veh, UFL1 / RFU, COG3 / Fold change vs veh, COG3 / RFU, DIAPH2 / Fold change vs veh, DIAPH2 / RFU, SKA2 / Fold change vs veh, SKA2 / RFU, AFF3 / Fold change vs veh, AFF3 / RFU, LMF1 / Fold change vs veh, LMF1 / RFU, IPO11 / Fold change vs veh, IPO11 / RFU, DFFB / Fold change vs veh, DFFB / RFU, FOXP1 / Fold change vs veh, FOXP1 / RFU, CARD8 / Fold change vs veh, CARD8 / RFU, STRN3 / Fold change vs veh, STRN3 / RFU, ADK / Fold change vs veh, ADK / RFU, RASSF2 / Fold change vs veh, RASSF2 / RFU, WIPF1 / Fold change vs veh, WIPF1 / RFU, LARP1B / Fold change vs veh, LARP1B / RFU, RASA1 / Fold change vs veh, RASA1 / RFU, RB1 / Fold change vs veh, RB1 / RFU, PPFIA1 / Fold change vs veh, PPFIA1 / RFU, MAT2A / Fold change vs veh, MAT2A / RFU, CCT5 / Fold change vs veh, CCT5 / RFU, WDR92 / Fold change vs veh, WDR92 / RFU, CUX1 / Fold change vs veh, CUX1 / RFU, TTC7A / Fold change vs veh, TTC7A / RFU, TMEM135 / Fold change vs veh, TMEM135 / RFU, DEPTOR / Fold change vs veh, DEPTOR / RFU, CPM / Fold change vs veh, CPM / RFU, DNAJB6 / Fold change vs veh, DNAJB6 / RFU, CACNA2D3 / Fold change vs veh, CACNA2D3 / RFU, DTX4 / Fold change vs veh, DTX4 / RFU, TFCP2 / Fold change vs veh, TFCP2 / RFU, GMCL1 /// GMCL1P1 / Fold change vs veh, GMCL1 /// GMCL1P1 / RFU, AEBP2 / Fold change vs veh, AEBP2 / RFU, SNHG1 /// SNORD22 /// SNORD25 /// SNORD26 /// SNORD27 /// SNORD28 /// SNORD29 /// SNORD31 / Fold change vs veh, SNHG1 /// SNORD22 /// SNORD25 /// SNORD26 /// SNORD27 /// SNORD28 /// SNORD29 /// SNORD31 / Fold change (Aza/veh), C12orf56 (ProbeSet 11735607_a_at) / Fold change (ACY-1035/veh), C12orf56 (ProbeSet 11735607_a_at) / Fold change (Aza/veh), FGFR1OP (ProbeSet 11751329_s_at) / Fold change (ACY-1035/veh), FGFR1OP (ProbeSet 11751329_s_at) / Fold change (Aza/veh), VPS36 (ProbeSet 11739960_a_at) / Fold change (ACY-1035/veh), VPS36 (ProbeSet 11739960_a_at) / RFU SYPL1 (11715823_x_at) / Fold change /veh SYPL1 (11715823_x_at) / RFU IGFBP7 (11715501_s_at) / Fold change /veh IGFBP7 (11715501_s_at) / RFU REEP3 (11722064_at) / Fold change /veh REEP3 (11722064_at) / RFU IGLL1 (11728026_x_at) / Fold change /veh IGLL1 (11728026_x_at): dose or concentration left out as unconfirmed. To be noted: MV-4-11 cells, 48 hours. The assay is classed as cell-based, human.

On to `Nc1ncn([C@@H]2O[C@H](CO)[C@@H](O)[C@H]2O)c(=O)n1` [azacitidine], for which the “RFU CDKN2B (11736163_a_at)” value came out at 8.51 RFU.
